Experimental data: patent US20250179052A1, “PYRIMIDINYL-OXY-QUINOLINE BASED HERBICIDAL COMPOUNDS” (SYNGENTA CROP PROTECTION AG, priority 2022, published 2025)

Key:
Settings in all cases: 250 g/ha, evaluated after 13 days, five-point scale
[1] = test system: Amaranthus retoflexus (AMARE); assay: Post-emergence herbicidal glasshouse test; type: in vivo
AMAPA [2] = assay: Post-emergence herbicidal glasshouse test; type: in vivo, Amaranthus tuberculatus
[3] = test system: Echinochloa crus-galli (ECHCG); assay: Post-emergence herbicidal glasshouse test; type: in vivo
[4] = test system: Ipomoea hederacea (IPOHE); assay: Post-emergence herbicidal glasshouse test; type: in vivo
[5] = test system: Amaranthus retoflexus (AMARE); assay: Pre-emergence herbicidal glasshouse test; type: in vivo
AMAPA [6] = assay: Pre-emergence herbicidal glasshouse test; type: in vivo, Amaranthus tuberculatus
[7] = test system: Echinochloa crus-galli (ECHCG); assay: Pre-emergence herbicidal glasshouse test; type: in vivo
[8] = test system: Ipomoea hederacea (IPOHE); assay: Pre-emergence herbicidal glasshouse test; type: in vivo

SMILES	percentage damage caused to the plant, AMARE [1]	percentage damage caused to the plant, AMAPA (AMAPA [2])	percentage damage caused to the plant, ECHCG [3]	percentage damage caused to the plant, IPOHE [4]	percentage damage caused to the plant, AMARE [5]	percentage damage caused to the plant, AMAPA (AMAPA [6])	percentage damage caused to the plant, ECHCG [7]	percentage damage caused to the plant, IPOHE [8]
FC(F)(F)c1ccc2c(Oc3ncc(Cl)cn3)ccc(Br)c2n1 [Compound 1.032]	2 (2=21-40%)	2 (2=21-40%)	1 (1=0-20%)	1 (1=0-20%)	1 (1=0-20%)	1 (1=0-20%)	1 (1=0-20%)	1 (1=0-20%)
Fc1cnc(Oc2cccc3nc(C(F)F)ncc23)nc1 [Compound 1.058]	2 (2=21-40%)	2 (2=21-40%)	1 (1=0-20%)	4 (4=61-80%)	5 (5=81-100%)	5 (5=81-100%)	1 (1=0-20%)	3 (3=41-60%)
Cc1cc(C(F)(F)F)nc2cccc(Oc3ncc(Cl)cc3F)c12 [Compound 1.066]	1 (1=0-20%)	1 (1=0-20%)	1 (1=0-20%)	1 (1=0-20%)	1 (1=0-20%)	1 (1=0-20%)	1 (1=0-20%)	1 (1=0-20%)
FC(F)(Cl)c1ncc2c(Oc3ncc(Cl)cn3)cccc2n1 [Compound 1.057]	4 (4=61-80%)	4 (4=61-80%)	4 (4=61-80%)	4 (4=61-80%)	5 (5=81-100%)	5 (5=81-100%)	5 (5=81-100%)	5 (5=81-100%)
COc1ncc2c(Oc3ncc(Br)cn3)ccc(Br)c2n1 [Compound 1.031]	1 (1=0-20%)	1 (1=0-20%)	1 (1=0-20%)	1 (1=0-20%)	1 (1=0-20%)	1 (1=0-20%)	1 (1=0-20%)	1 (1=0-20%)
Cc1ccc(Oc2ncc(F)cn2)c2ccc(C(F)(F)F)nc12 [Compound 1.029]	3 (3=41-60%)	4 (4=61-80%)	1 (1=0-20%)	2 (2=21-40%)	2 (2=21-40%)	3 (3=41-60%)	1 (1=0-20%)	1 (1=0-20%)
Cc1cnc(Oc2ccc(C)c3nc(C(F)(F)F)ccc23)nc1 [Compound 1.025]	2 (2=21-40%)	3 (3=41-60%)	1 (1=0-20%)	2 (2=21-40%)	1 (1=0-20%)	1 (1=0-20%)	1 (1=0-20%)	1 (1=0-20%)
Fc1cnc(Oc2ccc(Br)c3nc(C(F)(F)F)ccc23)nc1 [Compound 1.033]	2 (2=21-40%)	1 (1=0-20%)	1 (1=0-20%)	1 (1=0-20%)	3 (3=41-60%)	3 (3=41-60%)	1 (1=0-20%)	1 (1=0-20%)
FC(F)c1ncc2c(Oc3ncc(Br)cn3)ccc(Cl)c2n1 [Compound 1.039]	2 (2=21-40%)	2 (2=21-40%)	1 (1=0-20%)	1 (1=0-20%)	1 (1=0-20%)	1 (1=0-20%)	1 (1=0-20%)	1 (1=0-20%)
Fc1cnc(Oc2cccc3nc(C(F)(F)Cl)ncc23)nc1 [Compound 1.061, 2-[chloro(difluoro)methyl]-5-(5-fluoropyrimidin-2-yl)oxy-quinazoline]	4 (4=61-80%)	4 (4=61-80%)	4 (4=61-80%)	4 (4=61-80%)	5 (5=81-100%)	5 (5=81-100%)	5 (5=81-100%)	5 (5=81-100%)
Cc1nc(C(F)(F)Cl)nc2cccc(Oc3ncc(F)cn3)c12 [Compound 1.038]	4 (4=61-80%)	5 (5=81-100%)	3 (3=41-60%)	3 (3=41-60%)	5 (5=81-100%)	5 (5=81-100%)	4 (4=61-80%)	5 (5=81-100%)
Cc1ccc(Oc2ncc(Cl)cn2)c2cnc(C(F)(F)Cl)nc12 [Compound 1.048]	2 (2=21-40%)	2 (2=21-40%)	1 (1=0-20%)	1 (1=0-20%)	–	1 (1=0-20%)	1 (1=0-20%)	1 (1=0-20%)
FC(F)(Cl)c1ncc2c(Oc3ncc(Br)cn3)cccc2n1 [Compound 1.055, 5-(5-bromopyrimidin-2-yl)oxy-2-[chloro(difluoro)methyl]quinazoline]	2 (2=21-40%)	3 (3=41-60%)	2 (2=21-40%)	2 (2=21-40%)	5 (5=81-100%)	5 (5=81-100%)	4 (4=61-80%)	2 (2=21-40%)
Cc1ccc(Oc2ncc(Br)cn2)c2cnc(C(F)F)nc12 [Compound 1.023]	2 (2=21-40%)	3 (3=41-60%)	1 (1=0-20%)	1 (1=0-20%)	2 (2=21-40%)	1 (1=0-20%)	1 (1=0-20%)	1 (1=0-20%)
FC(F)(F)c1ccc2c(Oc3ncc(Br)cn3)ccc(Br)c2n1 [Compound 1.034]	1 (1=0-20%)	1 (1=0-20%)	1 (1=0-20%)	1 (1=0-20%)	1 (1=0-20%)	1 (1=0-20%)	1 (1=0-20%)	1 (1=0-20%)
Cc1nc(C(F)F)nc2cccc(Oc3ncc(F)cn3)c12 [Compound 1.052]	1 (1=0-20%)	1 (1=0-20%)	1 (1=0-20%)	2 (2=21-40%)	2 (2=21-40%)	1 (1=0-20%)	2 (2=21-40%)	1 (1=0-20%)
Cc1ccc(Oc2ncc(Cl)cn2)c2ccc(C(F)(F)F)nc12 [Compound 1.035]	3 (3=41-60%)	3 (3=41-60%)	1 (1=0-20%)	2 (2=21-40%)	2 (2=21-40%)	2 (2=21-40%)	1 (1=0-20%)	1 (1=0-20%)
FC(F)c1ncc2c(Oc3ncc(Cl)cn3)ccc(Cl)c2n1 [Compound 1.054]	2 (2=21-40%)	2 (2=21-40%)	1 (1=0-20%)	1 (1=0-20%)	5 (5=81-100%)	5 (5=81-100%)	2 (2=21-40%)	1 (1=0-20%)
Cc1nc(C(F)F)nc2cccc(Oc3ncc(Cl)cn3)c12 [Compound 1.067]	4 (4=61-80%)	4 (4=61-80%)	1 (1=0-20%)	3 (3=41-60%)	–	3 (3=41-60%)	1 (1=0-20%)	2 (2=21-40%)
